{"source": "patent US8460685B2", "about": "“Method of improving the osteoinductivity of calcium phosphate” (Progentix Orthobiology B.V., priority 2005, dated 2013)", "key": {"[1]": {"system": "dorsal muscles of goats", "assay": "Osteoinductive potential of TCP ceramic loaded with lithium chloride, intramuscular implantation in goats (histology, histomorphometry)", "type": "in vivo", "settings": "LiCl in TCP; improved osteoinductivity", "method": "The osteoinductive potential of TCP ceramic loaded with lithium chloride was tested in a pilot study in muscle of goats. After sterilization (autoclaving at 121° C. for 30 minutes), a volume of 1.0 cc of 1-3 mm ceramic particles (granules) of each TCP-only, TCP with 5 mmol LiCl/100 g, TCP with 15 mmol LiCl/100 g and TCP with 45 mmol LiCl/100 g were implanted in dorsal muscles of 4 goats for 12 weeks (total 4 implants in each of 4 goats).\n(§1) Twelve weeks after implantation the animals Were sacrificed and the implants were harvested with surrounding tissues and fixed in 1.5% glutaraldehyde in 0.14M cacodylate buffer. The fixed samples were dehydrated in a graded series of aqueous ethanol solutions (70%, 80%, 90%, 96% and 100%×2) and finally embedded in MMA. Non-decalcified sections (10-20 μm) were prepared and stained with methylene blue and basic fuchsin for histological observation and histomorphometrical analysis regarding bone formation.\nHistomorphometry was performed on the sections across the middle of the implants with regard to the percentage of the formed bone in the available space."}, "[2]": {"system": "dorsal muscles of goats", "assay": "Osteoinductive potential of sodium fluoride-loaded TCP ceramic, intramuscular implantation in goats (histology, histomorphometry)", "type": "in vivo", "settings": "NaF in TCP; improved osteoinductivity", "method": "The osteoinductive potential of sodium fluoride-loaded TCP ceramic was tested in a pilot study in muscles of goats. After sterilization (autoclaving at 121° C. for 30 minutes), a volume of 1.0 cc of 1-3 mm ceramic particles (granules) of each TCP-only, TCP with 8 mmol NaF/100 g, TCP with 16 mmol NaF/100 g and TCP with 24 mmol NaF/100 g were implanted in dorsal muscles of 4 goats for 12 weeks (total 4 implants in each of 4 goats).\nas §1, with “were” for “Were”, “methyl methacrylate (MMA). Using standard procedures non-decalcified” for “MMA. Non-decalcified”, “made” for “prepared”\nHistomorphometry was performed on the sections across the middle of the implants and to the percentage of the formed bone in the available space was measured using image analysis."}}, "data": [{"smiles": "[Cl-].[Li+]", "note": "[LiCl, lithium chloride]", "values": [{"measurement": "effective amount of trace element in TCP", "setting": "[1]", "value": "5-45 mmol LiCl/100 g"}, {"measurement": "optimum amount of trace element in TCP", "setting": "[1]", "value": "around 15 mmol LiCl/100 g TCP"}]}, {"smiles": "[F-].[Na+]", "note": "[NaF, sodium fluoride]", "values": [{"measurement": "effective amount of trace element in TCP", "setting": "[2]", "value": "8-24 mmol NaF/100 g"}, {"measurement": "optimum amount of trace element in TCP", "setting": "[2]", "value": "around 16 mmol NaF/100 g TCP"}]}]}
